Here are results for 4 compounds from US20100261219A1, “TEST METHOD OF BIOAVAILABILITY AND BIOEQUIVALENCE FOR XENOBIOTICS USING GENETIC PROFILING” (priority 2008, published 2010).

The conditions of series [1]: in vivo; cited from earlier work.

Like-named read-outs stand apart in the source and are kept apart here.

Turning to `CCN(CC)CCCC(C)Nc1ccnc2cc(Cl)ccc12` (stereo not shown) [Chloroquine], the t1/2 in series [1] is on record as 41 days. Regarding `CC/C(=C(\c1ccccc1)c1ccc(OCCN(C)C)cc1)c1ccccc1` [Tamoxifen], the t1/2 in series [1] is recorded as 8 days. In the case of `CC/C(=C(\c1ccccc1)c1ccc(OCCNC)cc1)c1ccccc1` [demethyltamoxifen], in series [1], the t1/2 is 11 days. In the case of `Cc1nc2n(c(=O)c1CCN1CCC(c3noc4cc(F)ccc34)CC1)CCCC2` [risperidone, Risperidone], the “Concentration of risperidone in blood plasma: influence of genotype” value (genotype of CYP2D6*10) is given as “significantly varied”. Besides, the “Concentration of risperidone in blood plasma” value runs as follows: (participants with mutant type, 48 hours after dosing) “capable of being measured”; (participants with only wild type, 24 hours after dosing) “reduced below a measurable level”; (wild type participants compared to heterozygous or mutant type (FIG. 7-9)) “considerably low”.
